According to the NIST ThermoML archive (doi:10.1016/j.jct.2017.07.040):

Experiment: mn = molality of the nth substance listed, in mol/kg
Conditions: 101 kPa, Liquid; for viscosity: Capillary tube (Ostwald / Ubbelohde) method; for speed of sound: Frequency=6 MHz, Linear variable-path acoustic interferometer; for mass density: Vibrating tube method

CC1(C)S[C@@H]2[C@H](NC(=O)[C@H](N)c3ccccc3)C(=O)N2[C@H]1C(=O)[O-].[Na+] [Ampicillin Sodium] + O
Conditions	mass density [kg/m3]	speed of sound [m/s]	viscosity [mPa·s]
293.15 K, m1 = 0.035	1002.84	1487.5	1.034
293.15 K, m1 = 0.055	1005.4	1492	1.072
293.15 K, m1 = 0.075	1007.9	1496.1	1.109
293.15 K, m1 = 0.095	1010.54	1501.3	1.113
298.15 K, m1 = 0.035	1001.64	1501.6	0.9268
298.15 K, m1 = 0.055	1004.16	1505.6	0.9663
298.15 K, m1 = 0.075	1006.66	1509.6	1.008
298.15 K, m1 = 0.095	1009.25	1515	1.05
303.15 K, m1 = 0.035	1000.19	1514	0.8381
303.15 K, m1 = 0.055	1002.69	1518.1	0.8814
303.15 K, m1 = 0.075	1005.1	1522.1	0.9262
303.15 K, m1 = 0.095	1007.7	1526	0.9736
308.15 K, m1 = 0.035	998.531	1524.7	0.7612
308.15 K, m1 = 0.055	1001.01	1529	0.8077
308.15 K, m1 = 0.075	1003.04	1533	0.8543
308.15 K, m1 = 0.095	1005.84	1535.7	0.9016
313.15 K, m1 = 0.035	996.661	1533.8	0.6978
313.15 K, m1 = 0.055	999.128	1538	0.748
313.15 K, m1 = 0.075	1000.49	1542.5	0.7967
313.15 K, m1 = 0.095	1003.74	1546.1	0.8021

N[C@@H](Cc1c[nH]cn1)C(=O)O [L-histidine] + O
Conditions	mass density [kg/m3]	speed of sound [m/s]	viscosity [mPa·s]
293.15 K, m1 = 0.01	998.806	1483.9	1.009
293.15 K, m1 = 0.03	999.974	1485.7	1.016
293.15 K, m1 = 0.05	1001.14	1487.5	1.022
293.15 K, m1 = 0.07	1002.32	1489.3	1.028
293.15 K, m1 = 0.09	1003.5	1491.1	1.034
293.15 K, m1 = 0.11	1004.68	1492.8	1.04
298.15 K, m1 = 0.01	997.635	1498.2	0.8956
298.15 K, m1 = 0.03	998.775	1500	0.9014
298.15 K, m1 = 0.05	999.914	1501.7	0.9061
298.15 K, m1 = 0.07	1001.05	1503.2	0.9107
298.15 K, m1 = 0.09	1002.19	1505	0.9156
298.15 K, m1 = 0.11	1003.33	1506.9	0.9197
303.15 K, m1 = 0.01	996.232	1510.3	0.8015
303.15 K, m1 = 0.03	997.346	1512	0.8061
303.15 K, m1 = 0.05	998.458	1513.7	0.8103
303.15 K, m1 = 0.07	999.567	1515.4	0.8143
303.15 K, m1 = 0.09	1000.68	1517	0.8178
303.15 K, m1 = 0.11	1001.79	1518.7	0.8217
308.15 K, m1 = 0.01	994.608	1521	0.7223
308.15 K, m1 = 0.03	995.696	1522.7	0.7259
308.15 K, m1 = 0.05	996.785	1524.3	0.7292
308.15 K, m1 = 0.07	997.874	1525.9	0.7323
308.15 K, m1 = 0.09	998.961	1527.5	0.7356
308.15 K, m1 = 0.11	1000.05	1529.1	0.7389
313.15 K, m1 = 0.01	992.782	1530.1	0.6553
313.15 K, m1 = 0.03	993.848	1531.7	0.6584
313.15 K, m1 = 0.05	994.918	1533.2	0.6613
313.15 K, m1 = 0.07	995.988	1534.8	0.6638
313.15 K, m1 = 0.09	997.06	1536.3	0.6669
313.15 K, m1 = 0.11	998.13	1537.8	0.6692

O [water] + CC1(C)S[C@@H]2[C@H](NC(=O)[C@H](N)c3ccccc3)C(=O)N2[C@H]1C(=O)[O-].[Na+]
m2 = 0
Conditions	mass density [kg/m3]	speed of sound [m/s]	viscosity [mPa·s]
293.15 K	–	–	1.002
298.15 K	–	–	0.8903
303.15 K	–	–	0.7973
308.15 K	994.063	–	0.719
313.15 K	–	1529.3	0.6526

O [water] + N[C@@H](Cc1c[nH]cn1)C(=O)O
m2 = 0
Conditions	mass density [kg/m3]	speed of sound [m/s]	viscosity [mPa·s]
293.15 K	–	–	1.002
298.15 K	–	–	0.8903
303.15 K	–	–	0.7973
308.15 K	994.063	–	0.719
313.15 K	–	1529.3	0.6526
